Reference: patent US20230355597A1, “COMPOUNDS, COMPOSITIONS, AND METHODS FOR THE TREATMENT AND PREVENTION OF AVIAN PATHOGENIC E. COLI (APEC)” (OHIO STATE INNOVATION FOUNDATION, priority 2018, published 2023)

How the values were obtained:
[1] = system: QS and virulence associated genes of APEC O78; experiment: qRT-PCR of QS-regulated and virulence factors genes; format: cell-based, avian pathogenic Escherichia coli (APEC); conditions: 100 µM, 10 h
APEC O1 in HD-11 cells = experiment: Intracellular survival assay (AI-2 inhibitors); conditions: O1, HD-11, 100 µM, 6 h
[2] = system: AI-2 activity of APEC O78; experiment: AI-2 bioluminescence indicator assay (V. harveyi BB170); conditions: APEC O78, 100 µM
AI-2 activity of APEC O2 = experiment: as above; conditions: APEC O2, 100 µM
AI-2 activity of APEC O1 = experiment: as above; conditions: APEC O1, 100 µM
AI-2 activity of APEC O8 = experiment: as above; conditions: APEC O8, 100 µM
[3] = system: AI-2 activity of APEC O15; experiment: as above; conditions: APEC O15, 100 µM
[4] = system: AI-2 activity of APEC O18; experiment: as above; conditions: APEC O18, 100 µM
[5] = system: AI-2 activity of APEC O35; experiment: as above; conditions: APEC O35, 100 µM
[6] = system: AI-2 activity of APEC O109; experiment: as above; conditions: APEC O109, 100 µM
[7] = system: AI-2 activity of APEC O115; experiment: as above; conditions: APEC O115, 100 µM
[8] = system: APEC O78 biofilm formation; experiment: Biofilm assay (crystal violet); format: cell-based, avian pathogenic Escherichia coli (APEC); conditions: 100 µM, 48 h
Experimental: Biofilm assay. […] Briefly, APEC O78 was grown in LB broth in the presence of 100 µM of each compound in a 96-well plate at 37° C. for 10 h. The culture was then diluted 1:100 in fresh LB broth. The biofilm assay was performed in 96-well plate contain 150 µL of the diluted culture and 100 µM of each compound. The plate was then incubated aerobically without shaking at 37° C. for 48 h, washed twice with PBS to remove the non-adherent cells and stained with 200 µL of 0.1% CV in water at room temperature for 10 min. The plate was washed with PBS and biofilm was quantified by measuring the absorbance at 550 nm after solubilizing the CV in 200 µL of 30% acetic acid in water for 15 min.

Rif^r APEC O78 [9] = experiment: Wax moth (Galleria mellonella) larva infection model (AI-2 inhibitors); conditions: 72 h post treatment
Rif^r APEC O78 [10] = experiment: In vivo screening of quorum sensing inhibitors in APEC infected broiler chickens; conditions: for reduction in chicken mortality: DMSO control mortality normalized to 100%; for Mortality rate (%): oral gavage once a day, day 4 to day 8, DMSO control 66.7%; for Reduction in APEC lesions severity, Air-sacs (%) / Reduction in APEC lesions severity, Heart (%) / Reduction in APEC lesions severity, Liver (%) / Reduction in APEC lesions severity, Lung (%): vs DMSO treated control
APEC O78 in HD-11 cells = experiment: Intracellular survival assay (AI-2 inhibitors); format: cell-based, avian pathogenic Escherichia coli (APEC); conditions: O78, HD-11, 100 µM, 6 h
Description: Intracellular survival assay.

Caco-2 cells = experiment: LDH assay of AI-2 inhibitors; conditions: Caco-2, 100 µM, 24 h
APEC O2 in HD-11 cells = experiment: Intracellular survival assay (AI-2 inhibitors); conditions: O2, HD-11, 100 µM, 6 h
APEC O78 in THP-1 cells = experiment: Intracellular survival assay (AI-2 inhibitors); conditions: O78, THP-1, 100 µM, 6 h, vs DMSO
APEC O2 in THP-1 cells = experiment: Intracellular survival assay (AI-2 inhibitors); conditions: O2, THP-1, 100 µM, 6 h

Compound | Inhibition % of AI-2 activity [2] [%] | Inhibition % of AI-2 activity (AI-2 activity of APEC O2) [%] | Inhibition % of AI-2 activity (AI-2 activity of APEC O1) [%] | Inhibition % of AI-2 activity (AI-2 activity of APEC O8) [%] | Inhibition % of AI-2 activity [3] [%] | Inhibition % of AI-2 activity [4] [%] | Inhibition % of AI-2 activity [5] [%] | Inhibition % of AI-2 activity [6] [%] | Inhibition % of AI-2 activity [7] [%] | reduction in chicken mortality (Rif^r APEC O78 [10]) [%] | Mortality rate (%) (Rif^r APEC O78 [10]) | Reduction in APEC lesions severity, Air-sacs (%) (Rif^r APEC O78 [10]) | Reduction in APEC lesions severity, Heart (%) (Rif^r APEC O78 [10]) | Reduction in APEC lesions severity, Liver (%) (Rif^r APEC O78 [10]) | Reduction in APEC lesions severity, Lung (%) (Rif^r APEC O78 [10]) | further results
NC(=O)c1ccccc1Nc1cccc(C(F)(F)F)c1 [C3, 2-[[3-(trifuoromethyl)phenyl]amino]benzamide] | 78 | 54 | 65 | 39 | 0 | 8 | 37 | 0 | 35 | – | – | – | – | – | – | expression of fpr [1]: down-regulated; clearance of intracellular APEC (APEC O1 in HD-11 cells): 100%; reduction of intracellular survival (APEC O1 in HD-11 cells; vs DMSO): 4 logs
COCCN1CCC(CN(Cc2ccncc2)Cc2ccccc2Cl)CC1 [C1, {2-chlorobenzyl)([1(2-methoxyethyly-4-piperidinyl]methyl)4-pyridinyimethyl)amine] | 84 | 94 | – | 20 | 13 | 37 | 48 | 65 | 64 | 25 | 50 | 26.7 | 0 | 0 | 66.7 | induction of biofilm formation of APEC O78 [8]: up to 100%; expression of murD [1]: down-regulated; larval death (Rif^r APEC O78 [9]): no larval death
OCCC1CN(C2CCN(c3ccccc3)CC2)CCN1CCCc1ccccc1 (stereo not drawn) [C10] | 84 | 89 | 64 | 0 | 22 | 35 | 47 | 57 | – | 75 | 16.6 | 88.9 | 83.3 | 100 | 100 | clearance of intracellular APEC (APEC O78 in HD-11 cells): 100%; reduction of intracellular survival (APEC O78 in HD-11 cells; vs DMSO): 4 logs; expression of fliP [1]: down-regulated; toxicity (LDH) (Caco-2 cells): 27%; clearance of intracellular APEC (APEC O2 in HD-11 cells): 100%; reduction of intracellular survival (APEC O2 in HD-11 cells; vs DMSO): 3.3 logs; reduction of intracellular survival (APEC O78 in THP-1 cells): up to 0.7 logs; clearance of intracellular APEC (APEC O2 in THP-1 cells): 100%; reduction of intracellular survival (APEC O2 in THP-1 cells; vs DMSO): 4 logs; average lesion score reduction (Rif^r APEC O78 [10]; liver, heart, lung and airsac, vs DMSO): 1.5-2.3; reduction of bacterial load in internal organs (Rif^r APEC O78 [10]; liver, lung, heart, and kidney, vs DMSO control, 'up to'): 3.4-4.3 log CFU/g
